In article PMC9481151, “Discovery of new symmetrical and asymmetrical nitrile-containing 1,4-dihydropyridine derivatives as dual kinases and P-glycoprotein inhibitors: synthesis, in vitro assays, and in silico studies” (Journal of Enzyme Inhibition and Medicinal Chemistry, 2022):

Columns and labels:
[1] = tested on: SF-268; experiment: NCI single dose (10 µM) SRB screen; type: cell-based, human; conditions: CNS cancer, 48 h
[2] = tested on: PC-3; experiment: NCI single dose (10 µM) SRB screen; type: cell-based, human; conditions: prostate cancer, 48 h
[3] = tested on: TK-10; experiment: NCI single dose (10 µM) SRB screen; type: cell-based, human; conditions: renal cancer, 48 h
[4] = tested on: COLO 205; experiment: NCI single dose (10 µM) SRB screen; type: cell-based, human; conditions: colon cancer, 48 h
[5] = tested on: SF-539; experiment: NCI single dose (10 µM) SRB screen; type: cell-based, human; conditions: CNS cancer, 48 h
[6] = tested on: MOLT-4; experiment: NCI single dose (10 µM) SRB screen; type: cell-based, human; conditions: leukaemia, 48 h
[7] = tested on: NCI 60 cancer cell lines; experiment: NCI single dose (10 µM) SRB screen, mean over panel; type: cell-based, human; conditions: mean over 60 cell lines, 48 h
[8] = tested on: SN12C; experiment: NCI single dose (10 µM) SRB screen; type: cell-based, human; conditions: renal cancer, 48 h
[9] = tested on: HOP-92; experiment: NCI single dose (10 µM) SRB screen; type: cell-based, human; conditions: non-small cell lung cancer, 48 h
[10] = tested on: Aspergillus flavus; experiment: Agar well diffusion method
[11] = tested on: UACC-257; experiment: NCI single dose (10 µM) SRB screen; type: cell-based, human; conditions: melanoma, 48 h
[12] = tested on: HCT-15; experiment: NCI single dose (10 µM) SRB screen; type: cell-based, human; conditions: colon cancer, 48 h
[13] = tested on: MCF7; experiment: NCI single dose (10 µM) SRB screen; type: cell-based, human; conditions: breast cancer, 48 h
[14] = tested on: KM12; experiment: NCI single dose (10 µM) SRB screen; type: cell-based, human; conditions: colon cancer, 48 h
[15] = tested on: A498; experiment: NCI single dose (10 µM) SRB screen; type: cell-based, human; conditions: renal cancer, 48 h
[16] = tested on: CAKI-1; experiment: NCI single dose (10 µM) SRB screen; type: cell-based, human; conditions: renal cancer, 48 h
[17] = tested on: SR; experiment: NCI single dose (10 µM) SRB screen; type: cell-based, human; conditions: leukaemia, 48 h
[18] = tested on: 786-0; experiment: NCI single dose (10 µM) SRB screen; type: cell-based, human; conditions: renal cancer, 48 h
[19] = tested on: Escherichia coli; experiment: Agar well diffusion method
[20] = tested on: UACC-62; experiment: NCI single dose (10 µM) SRB screen; type: cell-based, human; conditions: melanoma, 48 h
[21] = tested on: HT29; experiment: NCI single dose (10 µM) SRB screen; type: cell-based, human; conditions: colon cancer, 48 h
[22] = tested on: OVCAR-5; experiment: NCI single dose (10 µM) SRB screen; type: cell-based, human; conditions: ovarian cancer, 48 h
[23] = tested on: IGROV1; experiment: NCI single dose (10 µM) SRB screen; type: cell-based, human; conditions: ovarian cancer, 48 h
[24] = tested on: MDA-MB-468; experiment: NCI single dose (10 µM) SRB screen; type: cell-based, human; conditions: breast cancer, 48 h
[25] = tested on: HS578T; experiment: NCI single dose (10 µM) SRB screen; type: cell-based, human; conditions: breast cancer, 48 h
[26] = tested on: LOX IMVI; experiment: NCI single dose (10 µM) SRB screen; type: cell-based, human; conditions: melanoma, 48 h
[27] = tested on: DU-145; experiment: NCI single dose (10 µM) SRB screen; type: cell-based, human; conditions: prostate cancer, 48 h
[28] = tested on: RXF 393; experiment: NCI single dose (10 µM) SRB screen; type: cell-based, human; conditions: renal cancer, 48 h
[29] = tested on: T-47D; experiment: NCI single dose (10 µM) SRB screen; type: cell-based, human; conditions: breast cancer, 48 h
[30] = tested on: SK-MEL-2; experiment: NCI single dose (10 µM) SRB screen; type: cell-based, human; conditions: melanoma, 48 h
[31] = tested on: SNB-19; experiment: NCI single dose (10 µM) SRB screen; type: cell-based, human; conditions: CNS cancer, 48 h
[32] = tested on: NCI-H522; experiment: NCI single dose (10 µM) SRB screen; type: cell-based, human; conditions: non-small cell lung cancer, 48 h
[33] = tested on: EKVX; experiment: NCI single dose (10 µM) SRB screen; type: cell-based, human; conditions: non-small cell lung cancer, 48 h
[34] = tested on: K-562; experiment: NCI single dose (10 µM) SRB screen; type: cell-based, human; conditions: leukaemia, 48 h
[35] = tested on: OVCAR-3; experiment: NCI single dose (10 µM) SRB screen; type: cell-based, human; conditions: ovarian cancer, 48 h
[36] = tested on: NCI-H460; experiment: NCI single dose (10 µM) SRB screen; type: cell-based, human; conditions: non-small cell lung cancer, 48 h
[37] = tested on: SK-MEL-5; experiment: NCI single dose (10 µM) SRB screen; type: cell-based, human; conditions: melanoma, 48 h
[38] = tested on: NCI-H23; experiment: NCI single dose (10 µM) SRB screen; type: cell-based, human; conditions: non-small cell lung cancer, 48 h
[39] = tested on: OVCAR-4; experiment: NCI single dose (10 µM) SRB screen; type: cell-based, human; conditions: ovarian cancer, 48 h
[40] = tested on: M14; experiment: NCI single dose (10 µM) SRB screen; type: cell-based, human; conditions: melanoma, 48 h
[41] = tested on: NCI-H322M; experiment: NCI single dose (10 µM) SRB screen; type: cell-based; conditions: non-small cell lung cancer, 48 h
[42] = tested on: SW-620; experiment: NCI single dose (10 µM) SRB screen; type: cell-based, human; conditions: colon cancer, 48 h
[43] = tested on: MALME-3M; experiment: NCI single dose (10 µM) SRB screen; type: cell-based, human; conditions: melanoma, 48 h
[44] = tested on: ACHN; experiment: NCI single dose (10 µM) SRB screen; type: cell-based, human; conditions: renal cancer, 48 h
[45] = tested on: NCI/ADR-RES; experiment: NCI single dose (10 µM) SRB screen; type: cell-based, human; conditions: ovarian cancer, 48 h
[46] = tested on: OVCAR-8; experiment: NCI single dose (10 µM) SRB screen; type: cell-based, human; conditions: ovarian cancer, 48 h
[47] = tested on: UO-31; experiment: NCI single dose (10 µM) SRB screen; type: cell-based, human; conditions: renal cancer, 48 h
[48] = tested on: Candida albicans; experiment: Agar well diffusion method
[49] = tested on: HCT-116; experiment: NCI single dose (10 µM) SRB screen; type: cell-based, human; conditions: colon cancer, 48 h
[50] = tested on: MDA-MB-231; experiment: NCI single dose (10 µM) SRB screen; type: cell-based, human; conditions: breast cancer, 48 h
[51] = tested on: U251; experiment: NCI single dose (10 µM) SRB screen; type: cell-based, human; conditions: CNS cancer, 48 h
[52] = tested on: HCC-2998; experiment: NCI single dose (10 µM) SRB screen; type: cell-based, human; conditions: colon cancer, 48 h
[53] = tested on: NCI-H226; experiment: NCI single dose (10 µM) SRB screen; type: cell-based, human; conditions: non-small cell lung cancer, 48 h

COCCOC(=O)C1=C(C)NC(C)=C(C(=O)OCCOC)C1c1cccc(C#N)c1 [Compound 1f, Di(2-methoxyethyl) 4-(3-cyanophenyl)-2,6-dimethyl-1,4-dihydropyridine-3,5-dicarboxylate]
GI% SF-268 [1]: – (Only GI% ≥ 10 are shown)
GI% PC-3 [2]: – (Only GI% ≥ 10 are shown)
GI% TK-10 [3]: – (Only GI% ≥ 10 are shown)
GI% COLO 205 [4]: – (Only GI% ≥ 10 are shown)
GI% SF-539 [5]: – (Only GI% ≥ 10 are shown)
GI% MOLT-4 [6]: – (Only GI% ≥ 10 are shown)
Mean GI% [7]: −1%
GI% SN12C [8]: – (Only GI% ≥ 10 are shown)
GI% HOP-92 [9]: – (Only GI% ≥ 10 are shown)
zone of inhibition at 1000 µg/mL ([10]; Aspergillus flavus, 24 h, read-out: Diameter of inhibition zone, A. flavus): 19 mm
% activity index, A. flavus ([10]; relative to clotrimazole): 76%
GI% UACC-257 [11]: – (Only GI% ≥ 10 are shown)
GI% HCT-15 [12]: – (Only GI% ≥ 10 are shown)
GI% MCF7 [13]: – (Only GI% ≥ 10 are shown)
GI% KM12 [14]: – (Only GI% ≥ 10 are shown)
GI% A498 [15]: – (Only GI% ≥ 10 are shown)
GI% CAKI-1 [16]: – (Only GI% ≥ 10 are shown)
GI% SR [17]: – (Only GI% ≥ 10 are shown)
GI% 786-0 [18]: – (Only GI% ≥ 10 are shown)
zone of inhibition at 1000 µg/mL ([19]; Escherichia coli, 24 h, read-out: Diameter of inhibition zone, E. coli): 13 mm
% activity index, E. coli ([19]; relative to ciprofloxacin): 50%
GI% UACC-62 [20]: – (Only GI% ≥ 10 are shown)
GI% HT29 [21]: – (Only GI% ≥ 10 are shown)
GI% OVCAR-5 [22]: – (Only GI% ≥ 10 are shown)
GI% IGROV1 [23]: – (Only GI% ≥ 10 are shown)
GI% MDA-MB-468 [24]: 13%
GI% HS578T [25]: – (Only GI% ≥ 10 are shown)
GI% LOX IMVI [26]: – (Only GI% ≥ 10 are shown)
GI% DU-145 [27]: – (Only GI% ≥ 10 are shown)
GI% RXF 393 [28]: – (Only GI% ≥ 10 are shown)
GI% T-47D [29]: – (Only GI% ≥ 10 are shown)
GI% SK-MEL-2 [30]: – (Only GI% ≥ 10 are shown)
GI% SNB-19 [31]: – (Only GI% ≥ 10 are shown)
GI% NCI-H522 [32]: – (Only GI% ≥ 10 are shown)
GI% EKVX [33]: – (Only GI% ≥ 10 are shown)
GI% K-562 [34]: – (Only GI% ≥ 10 are shown)
GI% OVCAR-3 [35]: – (Only GI% ≥ 10 are shown)
GI% NCI-H460 [36]: – (Only GI% ≥ 10 are shown)
GI% SK-MEL-5 [37]: – (Only GI% ≥ 10 are shown)
GI% NCI-H23 [38]: – (Only GI% ≥ 10 are shown)
GI% OVCAR-4 [39]: – (Only GI% ≥ 10 are shown)
GI% M14 [40]: – (Only GI% ≥ 10 are shown)
GI% NCI-H322M [41]: – (Only GI% ≥ 10 are shown)
GI% SW-620 [42]: – (Only GI% ≥ 10 are shown)
GI% MALME-3M [43]: – (Only GI% ≥ 10 are shown)
GI% ACHN [44]: – (Only GI% ≥ 10 are shown)
GI% NCI/ADR-RES [45]: – (Only GI% ≥ 10 are shown)
GI% OVCAR-8 [46]: – (Only GI% ≥ 10 are shown)
GI% UO-31 [47]: – (Only GI% ≥ 10 are shown)
zone of inhibition at 1000 µg/mL ([48]; Candida albicans, 24 h, read-out: Diameter of inhibition zone, C. albicans): 18 mm
% activity index, C. albicans ([48]; relative to clotrimazole): 66.7%
GI% HCT-116 [49]: – (Only GI% ≥ 10 are shown)
GI% MDA-MB-231 [50]: – (Only GI% ≥ 10 are shown)
GI% U251 [51]: – (Only GI% ≥ 10 are shown)
GI% HCC-2998 [52]: – (Only GI% ≥ 10 are shown)
GI% NCI-H226 [53]: – (Only GI% ≥ 10 are shown)
